Measurements published in US20260103474A1, “NOVEL COMPOUNDS FOR THE DIAGNOSIS OF TDP-43 PROTEINOPATHIES” (AC IMMUNE SA, priority 2022, published 2026).

Experiments:
[1] = molecular target: T1, PD brain-derived a-synuclein aggregates (Homo sapiens, UniProt P37840); test: Micro-radiobinding direct binding on PD brain-derived a-synuclein aggregates; conditions: tritiated compound 0.6 to 200 nM
T1 construct: from tissue; host or cells: frozen brain tissue of PD donors, 1% sarkosyl-insoluble pellet
Procedure: The procedure was adapted from the protocol described in Spillantini et al., 1998. Frozen tissue blocks from PD donors were thawed on ice and homogenized using a glass dounce homogenizer. The homogenate was then centrifuged at 11,000×g (12,700 RPM) in an ultracentrifuge (Beckman, XL100K) for 20 minutes at 4° C. using a pre-cooled 70.1 rotor (Beckman, 342184). Pellets were resuspended in extraction buffer [10 mM Tris-HCl pH 7.4, 10% sucrose, […], 1% protease inhibitor (Calbiochem 539131), 1 mM EGTA, 1% phosphatase inhibitor (Sigma P5726 and P0044)] and centrifuged at 15,000×g (14,800 RPM, a 70.1 Ti rotor) for 20 minutes at 4° C. […]
PD brain-derived a-synuclein aggregates and AD brain-derived Tau PHF aggregates were spotted onto microarray slides. […] Quantification of signal was performed by using the image analysis software Beamage (ai4R). Non-specific signal was determined with an excess of non-radiolabelled compound (2 μM) and specific binding was calculated by subtracting the non-specific signal from the total signal. Competition was calculated as percentage, where 0% was defined as the specific binding in the presence of vehicle and 100% as the values obtained in the presence of excess of the non-radiolabelled a-syn reference compound. Ki values were calculated in GraphPad Prism7 by applying a nonlinear regression curve fit using a one site, specific binding model. […]

[2] = test system: Tau tangles; test: High resolution micro-autoradiography on AD brain sections; type: binding, human; conditions: tritiated compound 20 nM
Procedure: The protocol was adapted from Marquie et al., 2015. AD sections were incubated with [^3H]-Compound 1, [^3H]-Compound 17 or [^3H]-Tau reference compound at 20 nM for one hour at room temperature (RT). Sections were then washed as follows: One time in ice-cold 50 mM Tris-HCl pH 7.4 buffer for one minute, two times in 70% ice-cold ethanol for one minute, one time in ice-cold 50 mM Tris-HCl pH 7.4 buffer for one minute and finally rinsed briefly in ice-cold distilled water. Sections were subsequently dried and then exposed to Ilford Nuclear Emulsion Type K5 (Agar Scientific, AGP9281) in a light-proof slide storage box. After five days, the sections were developed by immersing them successively in the following solutions: 1.) Ilford Phenisol Developer (1:5 dilution in H2O, Agar Scientific, AGP9106), 2.) Ilfostop solution (1:20 dilution in H2O, Agar Scientific, AGP9104), 3.) Ilford Hypam Fixer (1:5 dilution in H2O, Agar Scientific, AGP9183) and finally rinsed with H2O.
Thioflavin S staining was performed on adjacent sections. For image acquisition, sections were mounted using ProLong Gold Antifade reagent (Invitrogen P36930) and imaged on a Panoramic150 Slide Scanner (3DHistech) with a 20× objective capturing separately brightfield and fluorescent images.

| Direct binding in PD brain-derived a-synuclein aggregates [1] | Structure (SMILES) | Micro-autoradiography silver grain accumulation on Tau tangles in AD brain sections [2] |
| --- | --- | --- |
| No significant binding | [3H]C([3H])(O)C1CCN(c2ccc(-c3nc4c(s3)C(=O)N(c3cccnc3)CC4)c(F)n2)CC1 [[^3H]-Compound 17, 2-(2-fluoro-6-(4-(hydroxymethyl-t2)piperidin-1-yl)pyridin-3-yl)-5-(pyridin-3-yl)-6,7-dihydrothiazolo[5,4-c]pyridin-4(5H)-one] | No accumulation of silver grains on Tau tangles |
| No significant binding | [3H]c1cncc(N2CCc3nc(-c4cc([3H])c(N5CC[C@@H](F)C5)nc4F)sc3C2=O)c1 [[^3H]-Compound 1, tritiated 2-[2-fluoro-6-[(3R)-3-fluoropyrrolidin-1-yl]-3-pyridyl]-5-(3-pyridyl)-6,7-dihydrothiazolo[5,4-c]pyridin-4-one] | No accumulation of silver grains on Tau tangles |
